Among the data in patent US12648924B2, “Prevention and treatment of effects of aging and age-associated disorders with ketone supplementation” (priority 2020, dated 2026) are blood ketone levels and blood glucose levels values, retold here.

A short description of this test: Blood metabolites after 4-day transition to standard diet supplemented with KDE (Experiment 4a). The class given is in vivo, VM/Dk mice. Particulars: for blood ketone levels: vs baseline. The text has this:
Food Intake and Ketone Diester Administration: Standard diet dry food (2018 Teklad Global 18% Protein Rodent Diet, Harlan) was mixed with deionized water (1 g dry food/mL deionized water) into a consistent paste and placed on a 100×15 mm dish. Food intake was tracked daily at the same time (7:00-9:00) and replaced every other day to ensure fresh food. Due to sinusoidal/oscillatory changes in food intake observed every other day (2-day pattern), a 4-day (2×2-day pattern) average was taken at EOL and baseline to calculate changes in anorexic symptoms. KDE was chemically synthesized with physical properties, preparation, and analysis described previously. For evaluation of KDE effect on anorexia, food intake was tracked daily at the same time (7:00-9:00). […] Consequently, upon VM-M3 inoculation, KDE+VM-M3 received ad libitum 0% KDE/weight day 1, 5% KDE day 2, 10% KDE day 3, 15% KDE day 4, 20% KDE day 5, 25% KDE day 6, and 30% KDE day 7 through 21 on top of HPSD. VM-M3 and Sham received HPSD ad libitum. As pilot work indicated potential water evaporation in food paste in ventilated cages, dehydration standard curve was calculated across various volumes of plated food (5, 10, 25.0, 50.0, 100 g/food) with and without KDE over a two-day period. Standard curve equation [water evaporated=0.2472 (original grams of water)+1.364] was used to correct for amount of dehydration prior to calculating caloric intake. For LPS experiments, 1×4 mL/kg KDE gavage or 1×4 mL/kg water gavage were administered for KDE+LPS and LPS-only, respectively. Ab libitum food intake was tracked daily during initial analysis with caloric restriction reported as the percent reduction in 24-hour caloric intake from pre- to post-LPS administration. Pair-feeding was conducted during subsequent analysis. […]
Metabolic Biomarkers: Blood glucose and R β-hydroxybutyrate were measured using Precision Xtra™ Blood Glucose & Ketone Monitoring System (Abbott Laboratories, Abbott Park, IL). Blood lactate concentration was measured using Lactate Plus Lactate Meter (Nova Biomedical). IGF-1 and Insulin were relabeled for blinded analysis and subsequently analyzed using Luminex 100 system (Luminex, Austin, TX) with R&D Systems Mouse 1-Plex Luminex Assay (R&D Systems, Minneapolis, MN) and Milliplex Mouse Multiplex Kit (Millipore, St. Charles, MO), respectively, using manufacturer's protocol.
To determine whether KDE could alter systemic metabolism, blood metabolites were measured at baseline following a standard diet and after a 4-day transition to a standard diet supplemented with 20% KDE, 25% KDE, or 30% KDE. […] To determine whether KDE could alter metabolism in CACS, blood ketones, glucose, and lactate were measured weekly. […] Thus, to determine if KDE altered tumor burden, in vivo bioluminescence imaging was analyzed weekly.

“Also recorded” adds a separate entry of the source.

As for `CC(=O)CC(=O)OCCC(C)OC(=O)CC(C)=O` (stereo not shown) [KDE, R/S 1,3-butanediol acetoacetate diester], the blood ketone levels result reads like this: (20% KDE in standard diet, 4-day transition) “significant elevations”; (30% KDE in standard diet, 4-day transition) “significant elevations; also recorded: highest ketone elevations”. The blood glucose levels entry is, setting by setting: (30% KDE in standard diet, compared with 20% and 25% KDE) “greatest reduction in glucose”; (all KDE groups (20%, 25%, 30% KDE in standard diet), 4-day transition) “significant reductions”.
